Assay results taken from the supplement of paper PMC10307832.

Columns and labels:
Experiment in all cases: relative viability (nuclei count vs DMSO), 5 days (fraction); higher = more cells survive
Etoposide + Pictilisib = compound: COc1cc([C@@H]2c3cc4c(cc3[C@@H](O[C@@H]3O[C@@H]5CO[C@@H](C)O[C@H]5[C@H](O)[C@H]3O)[C@H]3COC(=O)[C@H]23)OCO4)cc(OC)c1O [Etoposide] + CS(=O)(=O)N1CCN(Cc2cc3nc(-c4cccc5[nH]ncc45)nc(N4CCOCC4)c3s2)CC1 [Pictilisib] (partner 1 µM)
Outline: (§1)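 Values are medians from duplicate plates. Each reflects relative viability, defined as the nuclei count of treated wells over that of vehicle wells. Lung cancer cell lines in 1536-well plates were pin-tool dosed one day after seeding with one drug alone or with a fixed anchor-drug dose plus five library-drug doses (not always all listed) in √10 steps, then fixed, stained and imaged at 4× after 5 days.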

Etoposide + Vorinostat = compound: COc1cc([C@@H]2c3cc4c(cc3[C@@H](O[C@@H]3O[C@@H]5CO[C@@H](C)O[C@H]5[C@H](O)[C@H]3O)[C@H]3COC(=O)[C@H]23)OCO4)cc(OC)c1O [Etoposide] + O=C(CCCCCCC(=O)Nc1ccccc1)NO [Vorinostat] (partner 1 µM)
Outline: as §1

Bleomycin + Pemetrexed = compound: CC1=C(N=C(N=C1N)[C@H](CC(=O)N)NC[C@@H](C(=O)N)N)C(=O)N[C@@H]([C@H](C2=CN=CN2)OC3C(C(C(C(O3)CO)O)O)OC4C(C(C(C(O4)CO)O)OC(=O)N)O)C(=O)N[C@H](C)[C@H]([C@H](C)C(=O)N[C@@H]([C@@H](C)O)C(=O)NCCC5=NC(=CS5)C6=NC(=CS6)C(=O)NCCC[S+](C)C)O [Bleomycin] + Nc1nc2[nH]cc(CCc3ccc(C(=O)N[C@@H](CCC(=O)O)C(=O)O)cc3)c2c(=O)[nH]1 [Pemetrexed] (partner 0.2 µM); details: main component drawn
Outline: as §1

Bleomycin + Olaparib = compound: CC1=C(N=C(N=C1N)[C@H](CC(=O)N)NC[C@@H](C(=O)N)N)C(=O)N[C@@H]([C@H](C2=CN=CN2)OC3C(C(C(C(O3)CO)O)O)OC4C(C(C(C(O4)CO)O)OC(=O)N)O)C(=O)N[C@H](C)[C@H]([C@H](C)C(=O)N[C@@H]([C@@H](C)O)C(=O)NCCC5=NC(=CS5)C6=NC(=CS6)C(=O)NCCC[S+](C)C)O [Bleomycin] + O=C(c1cc(Cc2n[nH]c(=O)c3ccccc23)ccc1F)N1CCN(C(=O)C2CC2)CC1 [Olaparib] (partner 8 µM); details: main component drawn
Outline: as §1

Cell Line | relative viability (Etoposide + Pictilisib; first compound 0.01 µM) | relative viability (Etoposide + Pictilisib; first compound 0.03162 µM) | relative viability (Etoposide + Pictilisib; first compound 0.1 µM) | relative viability (Etoposide + Pictilisib; first compound 0.3162 µM) | relative viability (Etoposide + Pictilisib; first compound 1 µM) | relative viability (Etoposide + Vorinostat; first compound 0.01 µM) | relative viability (Etoposide + Vorinostat; first compound 0.03162 µM) | relative viability (Etoposide + Vorinostat; first compound 0.1 µM) | relative viability (Etoposide + Vorinostat; first compound 0.3162 µM) | relative viability (Etoposide + Vorinostat; first compound 1 µM) | relative viability (Bleomycin + Pemetrexed; first compound 0.01 µM) | relative viability (Bleomycin + Pemetrexed; first compound 0.03162 µM) | relative viability (Bleomycin + Pemetrexed; first compound 0.1 µM) | relative viability (Bleomycin + Pemetrexed; first compound 0.3162 µM) | relative viability (Bleomycin + Pemetrexed; first compound 1 µM) | relative viability (Bleomycin + Olaparib; first compound 0.01 µM) | relative viability (Bleomycin + Olaparib; first compound 0.03162 µM) | relative viability (Bleomycin + Olaparib; first compound 0.1 µM) | relative viability (Bleomycin + Olaparib; first compound 0.3162 µM) | relative viability (Bleomycin + Olaparib; first compound 1 µM)
NCI-H2009 | 0.693 | 0.898 | 0.54 | 0.543 | 0.236 | 0.704 | 0.631 | 0.571 | 0.597 | 0.409 | 0.889 | 1.03 | 1.04 | 0.736 | 0.503 | 0.586 | 0.709 | 0.62 | 0.453 | 0.268
NCI-H2023 | 0.225 | 0.255 | 0.145 | 0.124 | 0.0878 | 0.442 | 0.626 | 0.335 | 0.176 | 0.0989 | 0.178 | 0.204 | 0.157 | 0.136 | 0.0973 | 0.273 | 0.357 | 0.238 | 0.0886 | 0.09
NCI-H2085 | 0.513 | 0.491 | 0.324 | 0.433 | 0.287 | 0.762 | 0.809 | 0.635 | 0.75 | 0.301 | 0.878 | 0.954 | 0.811 | 0.347 | 0.447 | 0.665 | 0.716 | 0.47 | 0.376 | 0.383
NCI-H2087 | – | 1.09 | 0.551 | 0.543 | 0.235 | 1.08 | 0.975 | 0.641 | 0.524 | 0.23 | 0.645 | 0.619 | 0.622 | 0.241 | 0.186 | 0.366 | 0.46 | 0.442 | 0.182 | 0.145
NCI-H2126 | 0.536 | 0.55 | 0.419 | 0.392 | 0.332 | 0.707 | 0.911 | 0.512 | 0.603 | 0.227 | 0.728 | 0.774 | 0.629 | 0.567 | 0.611 | 0.863 | 0.933 | 0.932 | 0.739 | 0.67
NCI-H2170 | 0.315 | 0.306 | – | 0.336 | 0.255 | 0.782 | 0.846 | – | 0.755 | 0.438 | 0.255 | 0.263 | 0.244 | 0.235 | 0.234 | 0.508 | 0.523 | 0.397 | 0.361 | 0.3
NCI-H2228 | 0.351 | 0.411 | 0.167 | 0.229 | 0.109 | 0.577 | 0.668 | 1.07 | 0.272 | 0.142 | 0.317 | 0.291 | 0.263 | 0.199 | 0.185 | 0.443 | 0.574 | 0.457 | 0.211 | 0.159
NCI-H2347 | 0.921 | 0.757 | 0.309 | 0.285 | 0.392 | 0.412 | 0.646 | 0.475 | 0.382 | 0.432 | 0.401 | 0.427 | 0.435 | 0.383 | 0.423 | 0.581 | 0.573 | 0.466 | 0.45 | 0.413
NCI-H2405 | 0.455 | 0.508 | 0.268 | 0.399 | 0.315 | 1.11 | 1.12 | 0.765 | 0.742 | 0.27 | 0.955 | 0.974 | 0.919 | 0.595 | 0.408 | 0.668 | 0.757 | 0.669 | 0.395 | 0.277
NCI-H3122 | 0.687 | 0.74 | 0.387 | 0.576 | 0.349 | 1.04 | 1.11 | 0.598 | 0.66 | 0.224 | 0.214 | 0.205 | 0.201 | 0.165 | 0.166 | 0.593 | 0.599 | 0.506 | 0.364 | 0.279
PC-3 [JPC-3] | 0.689 | 0.819 | 0.576 | 0.785 | 0.497 | 0.796 | 1.09 | 0.69 | 0.694 | 0.518 | 1.03 | 1.18 | 0.948 | 0.647 | 0.526 | 0.932 | 1.13 | 0.825 | 0.481 | 0.486
PC-14 | 0.598 | 0.638 | 0.543 | 0.371 | 0.289 | 0.762 | 0.89 | 0.558 | 0.495 | 0.234 | 0.113 | 0.118 | 0.103 | 0.0537 | 0.0242 | 0.114 | 0.147 | 0.0932 | 0.0421 | 0.0404
RERF-LC-KJ | 0.533 | 0.586 | 0.459 | 0.529 | 0.365 | 0.624 | 0.728 | 0.5 | 0.621 | 0.412 | 0.416 | 0.504 | 0.391 | 0.261 | 0.142 | 0.425 | 0.385 | 0.325 | 0.162 | 0.16
SK-LU-1 | 0.603 | 0.597 | 0.308 | 0.277 | 0.174 | 0.696 | 0.671 | 0.638 | 0.273 | 0.249 | 0.934 | 1.04 | 0.965 | 0.473 | 0.465 | 0.38 | 0.436 | 0.397 | 0.307 | 0.29
SK-MES-1 | 0.361 | 0.336 | 0.301 | 0.242 | 0.167 | 1.11 | 1.2 | 0.873 | 0.806 | 0.351 | 0.767 | 0.899 | 0.807 | 0.379 | 0.213 | 0.528 | 0.493 | 0.439 | 0.169 | 0.153
SW 1573 | 0.451 | 0.475 | 0.338 | 0.197 | 0.117 | 0.646 | 0.625 | 0.359 | 0.228 | 0.142 | 0.755 | 0.691 | 0.572 | 0.44 | 0.225 | 0.291 | 0.336 | 0.292 | 0.153 | 0.123
